Data reported in ChEMBL document CHEMBL1135565, “Synthesis of base-modified dihydropacidamycins” (2002).

Tests used:
Type in all cases: functional
[1] = test system: Escherichia coli; assay: Minimum inhibitory concentration against Escherichia coli
[2] = test system: Pasteurella multocida; assay: Minimum inhibitory concentration against Pasteurella multocida
[3] = test system: Pseudomonas aeruginosa; assay: Minimum inhibitory concentration against Pseudomonas aeruginosa
[4] = test system: Staphylococcus aureus; assay: Minimum inhibitory concentration against Staphylococcus aureus

Measured: MIC

C[C@H](NC(=O)N[C@@H](Cc1c[nH]c2ccccc12)C(=O)O)C(=O)N[C@H](C(=O)NC[C@H]1C[C@@H](O)[C@H](n2cc(F)c(=O)[nH]c2=O)O1)[C@H](C)N(C)C(=O)[C@@H](C)N
> 512 µg/mL: all assays above

Cc1cc(=O)[nH]c(=O)n1[C@@H]1O[C@@H](CNC(=O)[C@@H](NC(=O)[C@H](C)NC(=O)N[C@@H](Cc2c[nH]c3ccccc23)C(=O)O)[C@H](C)N(C)C(=O)[C@@H](C)N)C[C@H]1O
> 512 µg/mL: all assays above

C[C@H](NC(=O)N[C@@H](Cc1c[nH]c2ccccc12)C(=O)O)C(=O)N[C@H](C(=O)NC[C@H]1C[C@@H](O)[C@H](n2ccc(=O)n(C)c2=O)O1)[C@H](C)N(C)C(=O)[C@@H](C)N
> 512 µg/mL: all assays above

Cc1c(C)n([C@@H]2O[C@@H](CNC(=O)[C@@H](NC(=O)[C@H](C)NC(=O)N[C@@H](Cc3c[nH]c4ccccc34)C(=O)O)[C@H](C)N(C)C(=O)[C@@H](C)N)C[C@H]2O)c(=O)[nH]c1=O
> 512 µg/mL: all assays above

Cc1cn([C@@H]2O[C@@H](CNC(=O)[C@@H](NC(=O)[C@H](C)NC(=O)N[C@@H](Cc3c[nH]c4ccccc34)C(=O)O)[C@H](C)N(C)C(=O)[C@@H](C)N)C[C@H]2O)c(=O)[nH]c1=O
> 512 µg/mL: all assays above

COc1cccn([C@@H]2O[C@@H](CNC(=O)[C@@H](NC(=O)[C@H](C)NC(=O)N[C@@H](Cc3c[nH]c4ccccc34)C(=O)O)[C@H](C)N(C)C(=O)[C@@H](C)N)C[C@H]2O)c1=O
> 512 µg/mL: all assays above

C[C@H](NC(=O)N[C@@H](Cc1c[nH]c2ccccc12)C(=O)O)C(=O)N[C@H](C(=O)NC[C@H]1C[C@@H](O)[C@H](n2cc(Cl)c(=O)[nH]c2=O)O1)[C@H](C)N(C)C(=O)[C@@H](C)N
> 512 µg/mL: all assays above
